From patent publication US20160281125A1, “ANTIMICROBIAL COMPOUND SUSCEPTIBILITY TEST” (priority 2013, published 2016)

How the values were obtained:
E. coli BAA-197 (ESBL) = test: Selective lysis test, OD600, meropenem and cefotaxime (Example 2); assay type: cell-based
Method: In this experiment the following strains were tested: strain K. pneumoniae 13882 (previously considered meropenem sensitive and cefotaxime sensitive); E. coli BAA-197 (ESBL) (which expresses an extended-spectrum (beta)-lactamase enzyme and was previously considered meropenem sensitive and cefotaxime resistant); K. pneumoniae BAA-1705 (KPC) (which expresses a carbapenemase enzyme and was previously considered meropenem resistant and cefotaxime resistant); and K. pneumoniae BAA-2146 (NDM1) (which expresses the metallo-beta-lactamase-1 enzyme and was previously considered meropenem resistant and cefotaxime resistant).
An isolated colony from an overnight Tryptocase Soy Agar (TSA) plate of each bacteria was suspended in 1 ml Tryptocase Soy Broth (TSB) in a 5 ml BD polystyrene round bottom tube. TSB cultures were incubated at 37° C. for 1.5 hours shaking. Three 250 μl aliquots of each stationary-phase culture were then transferred to three 2 ml Eppendorf microcentrifuge tubes. One tube contained 500 μl of Normal Saline (BD); the second tube contained 500 μl Normal Saline with meropenem at 10 μg/ml; and the third tube contained 500 μl Normal Saline with cefotaxime (abbreviated […]) at 10 μg/ml. Tubes were inverted then incubated at 37° C. stagnant for thirty minutes. Then […] of lysis buffer (0.5% SDS in PSB) was added to each tube and each tube was vortexed for 5 seconds. Post incubation, all tubes were spun at 10000 G for 5 minutes. Supernatant was decanted and the pellet resuspended in Normal Saline. Tubes were vortexed. OD600 was measured using Eppendorf uvettes in a spectrophotometer. The delta between the control and the meropenem normal saline, or the control and the cefotaxime normal saline was used to determine susceptibility.

[1] = tested on: strains previously considered susceptible to meropenem; test: Selective lysis OD600 test, summary over the strains of Table 1; assay type: cell-based, Enterobacteriaceae; details: 13 of 14 strains of Table 1
Method: (§1) An isolated colony from an overnight Tryptocase Soy Agar (TSA) plate of each bacterial strain was suspended in 1 ml Tryptocasc Soy Broth (TSB) in a 5 ml BD polystyrene round bottom tube. TSB cultures were incubated shaking at 37° C. overnight. Ten of the overnight culture was inoculated into lml TSB and incubated shaking at 37° C. for three hours. Two […] aliquots of each log-phase culture were then transferred to two 2 ml Eppendorf microcentrifuge tubes. One tube contained 5000 of Normal Saline (BD); the second tube contained 5000 Normal Saline with meropenem at 10 μg/ml (final concentration of meropenem of 6.67 10 μg/ml). Tubes were inverted and then incubated at 37° C. stagnant for thirty minutes. Then […] of lysis buffer (0.5% SDS in PSB) (final concentration of SDS of 0.125%) was added to each tube and the tubes were vortexed for 5 seconds. Post incubation, all tubes were spun at 10000 G for 5 minutes. Supernatant was decanted and the pellet resuspended in Normal Saline. Tubes were vortexed again. OD600 was measured using Eppendorf uvettes in a spectrophotometer. The delta between the OD600 of the normal saline control and the OD600 for the test sample exposed to meropenem in normal saline was used to determine susceptibility of the bacterial strain to meropenem.
Species abbreviations: sp. […]

K. oxy strain 43086 = test: Selective lysis test, BacUni QuickFISH staining (Example 3); assay type: cell-based, K. oxytoca; details: FIG. 4; K. oxy 43086; meropenem 10 μg/ml, 30 min, SDS lysis
Text: An alternative to the spectrophotometer-based measurement of changes in turbidity for measuring cell lysis following treatment with the cell lysis conditions in Examples 1 and 2 is to stain samples using a stain that distinguishes between intact cells and lysed cells. In this example staining with BacUni QuickFISH™ was used to identify intact (i.e., non-lysed) cells. BacUN1 is a universal bacteria PNA probe that binds to an rRNA sequence present in most Gram-positive and Gram-negative bacteria. The PNA probe binds to universal rRNA in intact bacterial cells and the entire cell will appears green with fluorescent microscopy. If the bacterial cell had been lysed then the rRNA target would have been released from the bacterial cell and even of somewhat labeled it would not appear as a fluorescent bacterial cell.
An isolated colony from an overnight Tryptocase Soy Agar (TSA) plate of each bacteria was suspended in 1 ml Tryptocase Soy Broth (TSB) in a 5 ml BD polystyrene round bottom tube. TSB cultures were incubated at 37° C. overnight. Ten μl of overnight culture was inoculated into 1 ml TSB and incubated shaking at 37° C. for three hours. Two 250 μl aliquots of each log-phase culture was transferred to two 2 ml Eppendorf microcentrifuge tubes. […] The slide was viewed on fluorescence microscope using 60× oil immersion on Dual TxR/FITC. […]

E. aero 13048 = test: Selective lysis test, OD600 turbidity (Example 1); assay type: cell-based, Enterobacter aerogenes
Method: as §1

[2] = tested on: strains previously considered resistant to meropenem; test: Selective lysis OD600 test, summary over the strains of Table 2; assay type: cell-based, Klebsiella pneumoniae, Klebsiella oxytoca; details: 8 of the 9 strains of Table 2
Method: as §1, with “meropenem. […]” for “meropenem.”

K. pneumo 8308 = test: Selective lysis test, OD600 turbidity (Example 1); assay type: cell-based, Klebsiella pneumoniae
Method: as §1

K. pneumo 700603 = test: Selective lysis test, OD600 turbidity (Example 1); assay type: cell-based, Klebsiella pneumoniae
Method: as §1

K. pneumo 9633 = test: Selective lysis test, OD600 turbidity (Example 1); assay type: cell-based, Klebsiella pneumoniae
Method: as §1

K. pneumo 33495 = test: Selective lysis test, OD600 turbidity (Example 1); assay type: cell-based, Klebsiella pneumoniae
Method: as §1

[3] = OD600 vs control without meropenem
[4] = meropenem 10 μg/ml, 30 min, SDS lysis buffer + vortex

Structure (SMILES): C[C@@H](O)[C@H]1C(=O)N2C(C(=O)O)=C(S[C@@H]3CN[C@H](C(=O)N(C)C)C3)[C@H](C)[C@H]12 [meropenem]
- assay score (sensitive or resistant) (E. coli BAA-197 (ESBL)): sensitive
- % diff (E. coli BAA-197 (ESBL); OD600 vs control): 87.3%
- OD600 (E. coli BAA-197 (ESBL); antibiotic 10 μg/ml, 30 min, SDS lysis buffer + vortex, 1.5 h culture): 0.046
- decrease of OD600 turbidity vs negative control [1]: at least 88%
- number of BacUni QuickFISH stained cells, treated vs not treated (K. oxy strain 43086): significant reduction in the number of stained cells
- R or S (E. aero 13048): S (a percentage change of greater than about 85% indicates a strain is susceptible)
- % Change (E. aero 13048; [3]): 97%
- Mero OD600 (E. aero 13048; [4]): 0.077
- decrease of OD600 turbidity vs negative control [2]: ≤ 18%
- R or S (K. pneumo 8308): S (a percentage change of greater than about 85% indicates a strain is susceptible)
- % Change (K. pneumo 8308; [3]): 98%
- Mero OD600 (K. pneumo 8308; [4]): 0.053
- R or S (K. pneumo 700603): S (a percentage change of greater than about 85% indicates a strain is susceptible)
- % Change (K. pneumo 700603; [3]): 94%
- Mero OD600 (K. pneumo 700603; [4]): 0.065
- R or S (K. pneumo 9633): S (a percentage change of greater than about 85% indicates a strain is susceptible)
- % Change (K. pneumo 9633; [3]): 99%
- Mero OD600 (K. pneumo 9633; [4]): 0.015
- R or S (K. pneumo 33495): S (a percentage change of greater than about 85% indicates a strain is susceptible)
- % Change (K. pneumo 33495; [3]): 95%
- Mero OD600 (K. pneumo 33495; [4]): 0.097
